Measurements as given in the supplement of paper PMC11061612.

Key:
Test in all cases: combination Emax (second highest fraction inhibited in the dose matrix, 72 h); higher = more inhibition; extreme values may be limits of the assay
[1] = tested on: Ca9-22 (Head and Neck Carcinoma)
Summary of the method: (§1)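 Bliss excess equals the observed combination effect minus the expected value EA + EB − EA·EB, where EA and EB are the effects of each agent alone. Combination Emax is the second-highest inhibition within the matrix. Inhibition was scaled from CellTiter-Glo 2.0 luminescence, with 0 set by vehicle wells and 1 by blank wells, after 72 hours of two-drug dosing of cells plated in 1536-well plates.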

D-263MG (Glioblastoma) = tested on: D-263MG (Glioblastoma)
Summary of the method: as §1

[2] = tested on: EFM-19 (Breast Carcinoma)
Summary of the method: as §1

EW-24 (Ewing's Sarcoma) = tested on: EW-24 (Ewing's Sarcoma)
Summary of the method: as §1

[3] = tested on: EoL-1-cell (Acute Myeloid Leukemia)
Summary of the method: as §1

[4] = tested on: HOP-62 (Lung Adenocarcinoma)
Summary of the method: as §1

[5] = tested on: HSC-4 (Oral Cavity Carcinoma)
Summary of the method: as §1

[6] = tested on: Hs-766T (Pancreatic Carcinoma)
Summary of the method: as §1

[7] = tested on: KARPAS-299 (T-Cell Non-Hodgkin's Lymphoma)
Summary of the method: as §1

[8] = tested on: NCI-H358 (Lung Adenocarcinoma)
Summary of the method: as §1

[9] = tested on: NUGC-3 (Gastric Carcinoma)
Summary of the method: as §1

[10] = tested on: OVCAR-4 (Ovarian Carcinoma)
Summary of the method: as §1

[11] = tested on: PANC-04-03 (Pancreatic Carcinoma)
Summary of the method: as §1

PWR-1E (Non-Cancerous) = tested on: PWR-1E (Non-Cancerous)
Summary of the method: as §1

[12] = tested on: SCC-15 (Oral Cavity Carcinoma)
Summary of the method: as §1

[13] = tested on: SU8686 (Pancreatic Carcinoma)
Summary of the method: as §1

TGW (Neuroblastoma) = tested on: TGW (Neuroblastoma)
Summary of the method: as §1

TK10 (Kidney Carcinoma) = tested on: TK10 (Kidney Carcinoma)
Summary of the method: as §1

UACC-62 (Melanoma) = tested on: UACC-62 (Melanoma)
Summary of the method: as §1

YH-13 (Glioblastoma) = tested on: YH-13 (Glioblastoma)
Summary of the method: as §1

Row | Compound | combination Emax [1] | combination Emax (D-263MG (Glioblastoma)) | combination Emax [2] | combination Emax (EW-24 (Ewing's Sarcoma)) | combination Emax [3] | combination Emax [4] | combination Emax [5] | combination Emax [6] | combination Emax [7] | combination Emax [8] | combination Emax [9] | combination Emax [10] | combination Emax [11] | combination Emax (PWR-1E (Non-Cancerous)) | combination Emax [12] | combination Emax [13] | combination Emax (TGW (Neuroblastoma)) | combination Emax (TK10 (Kidney Carcinoma)) | combination Emax (UACC-62 (Melanoma)) | combination Emax (YH-13 (Glioblastoma))
1 | Cn1cnc2c(F)c(Nc3ccc(Br)cc3Cl)c(C(=O)NOCCO)cc21 [Selumetinib] + C[C@@H]1COCCN1C2=NC(=NC(=C2)C3(CC3)[S@](=N)(=O)C)C4=C5C=CNC5=NC=C4 [AZD6738] (first compound max 10 µM, 7x7, partner max 10 µM) | 0.869 | 0.359 | 0.138 | 0.667 | 1 | 0.569 | 0.595 | 0.567 | 0.929 | 0.586 | 0.666 | 0.532 | 0.516 | 0.935 | 0.435 | 0.113 | 0.577 | 0.573 | 0.803 | 0.51
2 | Cn1cnc2c(F)c(Nc3ccc(Br)cc3Cl)c(C(=O)NOCCO)cc21 [Selumetinib] + CC(C)n1c(=O)n(C)c2cnc3cc(F)c(-c4ccc(OCCCN5CCCCC5)nc4)cc3c21 [AZD1390] (first compound max 10 µM, 7x7, partner max 0.3 µM) | 0.44 | 0.204 | 0.235 | 0.132 | 0.762 | 0.409 | 0.132 | 0.475 | 0.347 | 0.444 | 0.328 | 0.126 | 0.418 | 0.131 | 0.176 | 0.163 | 0.0418 | 0.325 | 0.787 | 0.131
3 | COc1nnc2ccc(N3CCC(c4ccc(OCCN5CCN(C)C(=O)[C@H]5C)cc4)CC3)nn12 [AZD5153] + Cc1c2c(nn1C)CSCc1cc(n(C)n1)CSc1cc(c3ccccc3c1)OCCCc1c(C(=O)O)n(C)c3c-2c(Cl)ccc13 [AZD5991] (first compound max 1 µM, 7x7, partner max 1 µM) | 0.815 | 0.98 | 0.773 | 0.685 | 1 | 0.602 | 0.199 | 0.459 | 0.978 | 0.448 | 0.519 | 0.523 | 0.442 | 0.837 | 0.436 | 0.134 | 0.808 | 0.593 | 0.969 | 0.667
4 | Cc1c2c(nn1C)CSCc1cc(n(C)n1)CSc1cc(c3ccccc3c1)OCCCc1c(C(=O)O)n(C)c3c-2c(Cl)ccc13 [AZD5991] + Cc1cc2ncnn2cc1Nc1ncc2c(n1)n(C1CCOCC1)c(=O)n2C [AZD7648] (first compound max 1 µM, 7x7, partner max 10 µM) | 0.214 | 0.75 | 0.629 | 0.258 | 1 | 0.281 | 0.171 | 0.398 | 1 | 0.331 | 0.428 | 0.255 | 0.342 | 0.247 | 0.25 | 0.127 | 0.339 | 0.385 | 0.859 | 0.351
5 | Cc1c2c(nn1C)CSCc1cc(n(C)n1)CSc1cc(c3ccccc3c1)OCCCc1c(C(=O)O)n(C)c3c-2c(Cl)ccc13 [AZD5991] + C=CCn1c(=O)c2cnc(Nc3ccc(N4CCN(C)CC4)cc3)nc2n1-c1cccc(C(C)(C)O)n1 [AZD1775] (first compound max 1 µM, partner max 1 µM) | 0.879 | 0.758 | 0.778 | 0.402 | 1 | 0.705 | 0.507 | 0.496 | 0.992 | 0.649 | 0.78 | 0.742 | 0.512 | 0.55 | 0.437 | 0.33 | 0.806 | 0.498 | 0.901 | 0.411
6 | Cc1c2c(nn1C)CSCc1cc(n(C)n1)CSc1cc(c3ccccc3c1)OCCCc1c(C(=O)O)n(C)c3c-2c(Cl)ccc13 [AZD5991] + C[C@@H]1COCCN1C2=NC(=NC(=C2)C3(CC3)[S@](=N)(=O)C)C4=C5C=CNC5=NC=C4 [AZD6738] (first compound max 1 µM, 7x7, partner max 10 µM) | 0.93 | 0.935 | 0.465 | 0.53 | 1 | 0.784 | 0.678 | 0.574 | 1 | 0.632 | 0.69 | 0.713 | 0.479 | 0.985 | 0.561 | 0.353 | 0.714 | 0.522 | 0.939 | 0.46
7 | COc1cccc(OCCCN)c1-c1cc(Nc2cnc(C#N)cn2)n[nH]1 [Prexasertib] + CCc1c2c(nc3ccc(O)cc13)-c1cc3c(c(=O)n1C2)COC(=O)[C@]3(O)CC [SN-38] (first compound max 1 µM, 7x7, partner max 0.3 µM) | 0.985 | 0.955 | 0.841 | 0.832 | 0.996 | 0.843 | 0.9 | 0.655 | 0.992 | 0.897 | 0.976 | 0.9 | 0.625 | 1 | 0.802 | 0.448 | 0.944 | 0.691 | 0.817 | 0.862
8 | CS(=O)(=O)CCNCc1ccc(-c2ccc3ncnc(Nc4ccc(OCc5cccc(F)c5)c(Cl)c4)c3c2)o1 [Lapatinib] + NC1(c2ccc(-c3nc4ccn5c(=O)[nH]nc5c4cc3-c3ccccc3)cc2)CCC1 [MK-2206] (first compound max 10 µM, 7x7, partner max 10 µM) | 0.971 | 0.492 | 0.792 | 0.925 | 0.973 | – | 0.42 | 0.303 | 0.926 | 0.631 | 0.91 | – | 0.505 | 0.836 | – | – | 0.422 | 0.698 | 0.516 | 0.909
9 | CCc1c2c(nc3ccc(O)cc13)-c1cc3c(c(=O)n1C2)COC(=O)[C@]3(O)CC [SN-38] + O=C(c1cc(Cc2n[nH]c(=O)c3ccccc23)ccc1F)N1CCN(C(=O)C2CC2)CC1 [Olaparib] (first compound max 0.3 µM, 7x7, partner max 10 µM) | 0.868 | 0.703 | 0.566 | 0.821 | 0.99 | 0.672 | – | 0.415 | 0.896 | 0.693 | – | 0.24 | 0.465 | – | – | – | 0.668 | 0.373 | 0.843 | 0.58
10 | C[C@@H](Nc1cc(F)cc(F)c1)c1cc(C(=O)N(C)C)cc2c(=O)cc(N3CCOCC3)oc12 [AZD8186] + CC(=O)c1c(C)c2cnc(Nc3ccc(N4CCNCC4)cn3)nc2n(C2CCCC2)c1=O [Palbociclib] (first compound max 10 µM, 7x7, partner max 10 µM) | 0.368 | 0.355 | 0.449 | 0.563 | 0.551 | – | – | 0.441 | 0.345 | 0.398 | – | – | 0.344 | – | – | – | 0.32 | 0.556 | 0.51 | 0.692
11 | C[C@@H](Oc1cc(-c2cnn(C3CCNCC3)c2)cnc1N)c1c(Cl)ccc(F)c1Cl [Crizotinib] + CC1=C(C(=CC=C1)Cl)NC(=O)C2=CN=C(S2)NC3=CC(=NC(=N3)C)N4CCN(CC4)CCO [Dasatinib] (first compound max 10 µM, 7x7, partner max 2 µM) | 0.952 | 0.843 | 0.636 | 0.738 | 1 | – | – | 0.533 | 0.888 | 0.607 | – | – | 0.529 | – | – | – | 0.677 | 0.826 | 0.345 | 0.978
12 | CC1(C)CCC(CN2CCN(c3ccc(C(=O)NS(=O)(=O)c4ccc(NCC5CCOCC5)c([N+](=O)[O-])c4)c(Oc4cnc5[nH]ccc5c4)c3)CC2)=C(c2ccc(Cl)cc2)C1 [Venetoclax] + CS(=O)(=O)CCNCc1ccc(-c2ccc3ncnc(Nc4ccc(OCc5cccc(F)c5)c(Cl)c4)c3c2)o1 [Lapatinib] (first compound max 1 µM, 7x7, partner max 10 µM) | 0.777 | 0.108 | 0.207 | 0.245 | 0.986 | – | – | 0.208 | 0.337 | 0.431 | – | – | 0.291 | – | – | – | 0.459 | 0.516 | 0.256 | 0.0901
13 | CN(CCO)CC[C@H](CSc1ccccc1)Nc1ccc(S(=O)(=O)NC(=O)c2ccc(N3CCC([C@@H](O)c4ccccc4-c4ccc(Cl)cc4)CC3)cc2)cc1S(=O)(=O)C(F)(F)F [AZD4320] + CS(=O)(=O)CCNCc1ccc(-c2ccc3ncnc(Nc4ccc(OCc5cccc(F)c5)c(Cl)c4)c3c2)o1 [Lapatinib] (first compound max 1 µM, 7x7, partner max 10 µM) | 0.974 | 0.154 | 0.846 | 0.931 | 1 | – | – | 0.435 | 0.204 | 0.629 | – | – | 0.313 | – | – | – | 1 | 0.92 | 0.362 | 0.603
